Experimental data: PMC6277780, “A Multi-Mode Bioactive Agent Isolated From Ficus microcarpa L. Fill. With Therapeutic Potential for Type 2 Diabetes Mellitus” (Frontiers in Pharmacology, 2018)

Legend:
[1] = target: α-glucosidase (Saccharomyces cerevisiae, UniProt P53341); experiment: α-Glucosidase inhibition assay (pNPG substrate, 405 nm); assay type: biochemical; conditions: Table 1, unit inferred
Protocol: α-Glucosidase inhibition activity of the fractions and pure compounds (both PA and FL) was determined using the method of [Li et al. (2005)], while few modifications were made, according to system suitability. […] The decrease in absorption spectrum of reaction mixture indicated the inhibition of α-glucosidase activity of the sample under test. Assays were conducted in triplicate in 96-well microtitre plates. […] Percentage of inhibition was calculate by using following formula.
(1) Inhibitory activity=(OD control−OD test sample)/OD control×100
IC50 was calculated by using table curve ASIN software (2D v4) through linear regression analysis.

[2] = target: DPP-4 (Homo sapiens, UniProt P27487); experiment: DPP-4 inhibition assay (fluorometric, Gly-Pro-AMC); assay type: biochemical; conditions: pure compound and positive control
Protocol: DPP-4 inhibition activity was assessed by using fluorometric technique, following the method documented by [Saleem et al., 2014]. This method calculates the quantity of free AMC (7-amino-4-methyl-coumarin). The AMC is released from the Gly-Pro-AMC which is the substrate of DPP-4. Experiment was performed in triplicate. Fluorescence was measured at Em 430 nm following excitation at Ex351 nm using a Tecan safire desktop fluorometer (Reading, England, United Kingdom). 50 mM HEPES buffer was used for preparation of each sample, whose pH was 7.4. To each well we added DPP-4 (20 μl 1 U/ml), test sample (20 μl) and […]. Plates were placed at 37°C for 1 h and then 3 mM acetic acid (100 μl) was pipetted to stop the reaction. We used Berberine (13 mM), as a control for each experiment, as already reported ([Al-Masri et al., 2009]). IC50 for inhibition of DPP-4 was calculated for each sample.

[3] = system: AMPK; experiment: AMPK activation potential in primary hepatocytes (western blot); assay type: cell-based, C57BL/6 mice; conditions: 8 h, PA 20 μM, glucagon 2 μM
Protocol: To evaluate the AMPK activation potential of PA we performed in vitro analysis. We used primary hepatocytes, derived from C57BL/6 mice (Cell Biologics; Cat. C57-6224F). Hepatocytes were kept in M199 (Corning), supplemented with FBS (fetal bovine serum 10%) and glutagro (1% Corning). Hepatocytes were then serum starved, overnight, and prior to procedure in RPMI 1640 (United States Biological Life Sciences, R8999). 8 h prior to harvest, cells were treated with glucagon (2 μM), or test sample (20 μM). Cells were rinsed with ice cold PBS, twice, after harvest and were placed on ice until the extraction of protein was carried out. Assay was conducted in triplicate with three plates for each treatment. Protein from cells was hauled out; quantified and western blot was performed to assess the activation of AMPK after treatment with PA and compared it with untreated control and the cells treated with glucagon.
Extraction of proteins and western blot analysis was carried out, as we already reported ([Akhtar et al., 2016]). Briefly, lysis buffer was added to the harvested cells. […] Concentration of protein in each lysate was measured using Pierce BCA protein assay kit (Thermo Scientific), as per manufacturer’s protocol. […]

α-glucosidase, sequence (P53341 whole entry): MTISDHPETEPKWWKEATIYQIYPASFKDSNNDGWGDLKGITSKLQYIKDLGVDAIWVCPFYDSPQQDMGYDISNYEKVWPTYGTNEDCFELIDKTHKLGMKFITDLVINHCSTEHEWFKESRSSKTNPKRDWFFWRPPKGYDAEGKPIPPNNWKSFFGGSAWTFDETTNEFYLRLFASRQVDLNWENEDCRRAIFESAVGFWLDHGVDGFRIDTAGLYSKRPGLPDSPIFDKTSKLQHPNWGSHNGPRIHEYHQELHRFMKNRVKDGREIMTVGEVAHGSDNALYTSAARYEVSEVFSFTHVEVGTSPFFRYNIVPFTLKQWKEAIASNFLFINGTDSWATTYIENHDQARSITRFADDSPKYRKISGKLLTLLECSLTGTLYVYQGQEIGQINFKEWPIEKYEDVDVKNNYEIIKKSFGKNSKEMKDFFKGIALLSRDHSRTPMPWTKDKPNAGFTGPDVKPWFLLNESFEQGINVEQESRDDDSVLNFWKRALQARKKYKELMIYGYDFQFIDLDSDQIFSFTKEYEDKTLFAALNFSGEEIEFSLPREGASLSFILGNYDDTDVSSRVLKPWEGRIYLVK
DPP-4, sequence (P27487 whole entry, species assumed): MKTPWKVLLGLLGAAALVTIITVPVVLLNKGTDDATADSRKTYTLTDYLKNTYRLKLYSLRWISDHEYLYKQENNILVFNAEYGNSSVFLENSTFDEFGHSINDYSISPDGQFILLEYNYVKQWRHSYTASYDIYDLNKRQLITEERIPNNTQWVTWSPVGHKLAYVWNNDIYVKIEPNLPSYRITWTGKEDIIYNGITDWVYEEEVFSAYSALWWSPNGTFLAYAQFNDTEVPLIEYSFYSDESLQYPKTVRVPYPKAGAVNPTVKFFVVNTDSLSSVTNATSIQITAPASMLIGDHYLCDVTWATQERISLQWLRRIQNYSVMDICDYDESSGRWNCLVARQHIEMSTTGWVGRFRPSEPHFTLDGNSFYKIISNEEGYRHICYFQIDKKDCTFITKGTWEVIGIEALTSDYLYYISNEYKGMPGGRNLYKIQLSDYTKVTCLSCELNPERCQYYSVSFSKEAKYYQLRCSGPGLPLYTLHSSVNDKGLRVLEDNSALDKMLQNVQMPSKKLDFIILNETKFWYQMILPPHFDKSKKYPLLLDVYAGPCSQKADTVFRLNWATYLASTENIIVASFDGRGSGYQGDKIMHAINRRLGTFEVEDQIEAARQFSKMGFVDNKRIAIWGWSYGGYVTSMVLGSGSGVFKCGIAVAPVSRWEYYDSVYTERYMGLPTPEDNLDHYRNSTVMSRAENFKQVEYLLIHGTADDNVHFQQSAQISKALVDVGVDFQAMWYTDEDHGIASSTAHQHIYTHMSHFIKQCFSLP

3,4,5,7-Flavantetrol
IC50 [1]: 200 µM

COc1ccc2cc3[n+](cc2c1OC)CCc1cc2c(cc1-3)OCO2 [Berberine, reference compound]
IC50 [2]: 27.4 ± 2.2 µM

glucagon [reference compound]
AMPK activation (phosphorylation of AMPK at Thr172) [3]: no AMPK activation
phosphorylation of ACC to p-ACC at S79 [3]: not observed
